Laboratory results from ChEMBL document CHEMBL1154960, “Development of improved inhibitors of wall teichoic acid biosynthesis with potent activity against Staphylococcus aureus” (Bioorg Med Chem Lett, 2010).
≈ marks a conversion by molar mass, not a printed value. Calls of active or inactive are those of the source. The calls are words filed in the database; no cut-off is given here.

Key:
[1] = system: Staphylococcus aureus; assay: Antibacterial activity against Staphylococcus aureus RN4220 assessed as growth inhibition at 100 uM after 12 hrs by optical density plate reader method; assay type: functional
[2] = system: Staphylococcus aureus; assay: Antibacterial activity against tarO deficient Staphylococcus aureus RN4220 assessed as growth inhibition at 100 uM after 12 hrs by optical density plate reader method; assay type: functional; conditions: RN4220, 12 h, read-out: GI
[3] = system: Staphylococcus aureus; assay: Antibacterial activity against Staphylococcus aureus RN4220 after 12 hrs by optical density plate reader method; assay type: functional
[4] = system: Staphylococcus aureus; assay: Antibacterial activity against tarO deficient Staphylococcus aureus RN4220 after 12 hrs by optical density plate reader method; assay type: functional; conditions: RN4220, 12 h
[5] = system: Staphylococcus aureus; assay: Antibacterial activity against Staphylococcus aureus RN4220 assessed as cell survival at 100 uM after 12 hrs by optical density plate reader method; assay type: functional; conditions: RN4220, 12 h
[6] = system: Staphylococcus aureus; assay: Antibacterial activity against tarO deficient Staphylococcus aureus RN4220 assessed as cell survival at 100 uM after 12 hrs by optical density plate reader method; assay type: functional; conditions: RN4220, 12 h
[7] = system: Staphylococcus aureus; assay: Antibacterial activity against methicillin-sensitive Staphylococcus aureus RN6390 after 12 hrs by optical density plate reader method; assay type: functional; conditions: RN6390, 12 h
[8] = system: Staphylococcus aureus; assay: Antibacterial activity against methicillin-sensitive Staphylococcus aureus Newman after 12 hrs by optical density plate reader method; assay type: functional
[9] = system: Staphylococcus aureus; assay: Antibacterial activity against methicillin-resistant Staphylococcus aureus COL after 12 hrs by optical density plate reader method; assay type: functional
[10] = system: Staphylococcus aureus; assay: Antibacterial activity against methicillin-resistant Staphylococcus aureus MW2 after 12 hrs by optical density plate reader method; assay type: functional; conditions: MW2, 12 h
[11] = system: Staphylococcus aureus; assay: Bacteriostatic activity against Staphylococcus aureus RN4220 assessed as reduction in CFU at 8 times MIC up to 8 hrs by kill curve analysis; assay type: functional, organism-based
[12] = system: Mus musculus; assay: Toxicity in CD1 mouse at 100 mg/kg, iv; assay type: organism-based; design: dose 100 mg/kg, route intravenous; conditions: in vivo
[13] = system: Mus musculus; assay: Toxicity in CD1 mouse at 75 mg/kg, iv after 24 hrs; assay type: organism-based; design: dose 75 mg/kg, route intravenous; conditions: in vivo
[14] = system: Staphylococcus aureus; assay: Antibacterial activity against Staphylococcus aureus RN4220 after 12 hrs by optical density plate reader method in presence of 50% fetal bovine serum; assay type: functional
[15] = Staphylococcus aureus, RN4220, 12 h, read-out: GI
[16] = Staphylococcus aureus, RN4220, 12 h, read-out: MIC

Structure (SMILES)	inhibition of growth at 100 µM [1, 15] [%]	inhibition of growth at 100 µM [2] [%]	survival at 100 µM [5] [%]	survival at 100 µM [6] [%]	further results
CCN(CC)c1nc2c(S(=O)(=O)c3ccccc3)nnn2c2cc(C)ccc12	< 30	< 30			
CCN(CC)c1nc2c(S(=O)(=O)c3ccccc3)nnn2c2ccc(OC)cc12					MIC [3]: 25 µM (≈ 10.3 µg/mL)
CCN(CC)c1nc2c(S(=O)(=O)c3ccccc3)nnn2c2cc([N+](=O)[O-])ccc12					MIC [3, 16]: 100 µM (≈ 42.6 µg/mL); MIC [4]: 50 µM (≈ 21.3 µg/mL)
CCN(c1nc2c(S(=O)(=O)c3ccc(Cl)cc3)nnn2c2cc(OC)c(OC)cc12)C(C)C		< 30			MIC [3, 16]: 2.5 µM (≈ 1.22 µg/mL)
CCN(CC)c1nc2c(S(=O)(=O)c3ccccc3)nnn2c2ccc(C)cc12		< 30			MIC [3, 16]: 25 µM (≈ 9.89 µg/mL)
Cn1c(=O)c2c(-c3ccccc3)n3c(c2n(C)c1=O)C(c1ccc(F)cc1)Nc1ccccc1-3 (configuration not stated)			26	48	
CCN(CC)c1nc2c(S(=O)(=O)c3ccccc3)nnn2c2cc(Br)ccc12	> 31				MIC [4]: 100 µM (≈ 46 µg/mL)
COc1ccc(-c2c3c(=O)n(C)c(=O)n(C)c3c3n2-c2ccccc2NC3c2ccc(OC)cc2)cc1 (configuration not stated)			93	88	
Cc1ccc(C2Nc3ccccc3-n3c(-c4ccccc4)c4c(=O)n(C)c(=O)n(C)c4c32)o1 (configuration not stated)			101	110	
CCN(CC)c1nc2c(S(=O)(=O)c3ccccc3)nnn2c2ccc(Br)cc12					MIC [3, 16]: 12.5 µM (≈ 5.75 µg/mL)
CCN(c1nc2c(S(=O)(=O)c3ccc(C)cc3)nnn2c2cc(OC)c(OC)cc12)C(C)C					MIC [3, 16]: 1.6 µM (≈ 0.751 µg/mL)
CCN(CC)c1nc2c(S(=O)(=O)c3ccccc3)nnn2c2ccc(Cl)cc12		< 30			MIC [3, 16]: 3.6 µM (≈ 1.5 µg/mL); MIC [7]: 6.3 µM (≈ 2.62 µg/mL); MIC [8]: 12.5 µM (≈ 5.2 µg/mL); MIC [9]: 6.3 µM (≈ 2.62 µg/mL); MIC [10]: 6.3 µM (≈ 2.62 µg/mL); Activity [11]: Active
Cc1ccc(-c2c3c(=O)n(C)c(=O)n(C)c3c3n2-c2ccccc2NC3c2ccc(C)cc2O)cc1 (configuration not stated)			34	64	
CCCCN(CC)c1nc2c(S(=O)(=O)c3ccc(C)cc3)nnn2c2cc(OC)c(OC)cc12					MIC [3, 16]: 3.1 µM (≈ 1.5 µg/mL)
Cc1ccc(-c2c3c(=O)n(C)c(=O)n(C)c3c3n2-c2ccccc2NC3c2ccc(C#N)cc2)cc1 (configuration not stated)			95	81	
CCOCCN(CCOCC)c1nc2c(S(=O)(=O)c3ccc(C)cc3)nnn2c2cc(OC)c(OC)cc12	31				
CCN(CC)c1nc2c(S(=O)(=O)c3ccccc3)nnn2c2cc(OC)ccc12	> 31	> 31			
COc1cc2c(N3CCCCC3)nc3c(S(=O)(=O)c4ccc(C)cc4)nnn3c2cc1OC	> 31				
CCCN(CCC)c1nc2c(S(=O)(=O)c3ccc(C)cc3)nnn2c2cc(OC)c(OC)cc12					MIC [3, 16]: 6.3 µM (≈ 3.05 µg/mL)
Cn1c(=O)c2c(-c3ccccc3)n3c(c2n(C)c1=O)C(c1ccco1)Nc1ccccc1-3 (configuration not stated)			100	98	

Structure (SMILES)	inhibition of growth at 100 µM [1, 15] [%]	inhibition of growth at 100 µM [2] [%]	survival at 100 µM [5] [%]	survival at 100 µM [6] [%]	further results
CCN(CC)c1nc2c(S(=O)(=O)c3ccc(C)cc3)nnn2c2cc(OC)c(OC)cc12		< 30			MIC [3, 16]: 2.5 µM (≈ 1.14 µg/mL)
COc1cc2c(N3CCc4ccccc4C3)nc3c(S(=O)(=O)c4ccc(C)cc4)nnn3c2cc1OC	31	> 70			
CCN(CC)c1nc2c(S(=O)(=O)c3ccccc3)nnn2c2cc3c(cc12)OCCO3	< 30	< 30			
Cn1c(=O)c2c(-c3ccccc3)n3c(c2n(C)c1=O)C(c1ccc([N+](=O)[O-])cc1)Nc1ccccc1-3 (configuration not stated)			49	73	
CCCN(CCOC)c1nc2c(S(=O)(=O)c3ccc(C)cc3)nnn2c2cc(OC)c(OC)cc12	31				
Cc1ccc(C2Nc3ccccc3-n3c(-c4ccccc4)c4c(=O)n(C)c(=O)n(C)c4c32)cc1 (configuration not stated)			4	70	
CCN(CC)c1nc2c(S(=O)(=O)c3ccccc3)nnn2c2cc(Cl)ccc12	< 30	< 30			
CCN(CC)c1nc2c(S(=O)(=O)c3ccccc3)nnn2c2cccc(Cl)c12	< 30	< 30			
COc1cc2c(N3CCN(c4ccccc4)CC3)nc3c(S(=O)(=O)c4ccc(C)cc4)nnn3c2cc1OC	> 31	> 70			
CCN(CC)c1nc2c(S(=O)(=O)c3ccccc3)nnn2c2c(Cl)cccc12	< 30	< 30			
CCN(CC)c1nc2c(S(=O)(=O)c3ccccc3)nnn2c2cc(OC)c(OC)cc12		< 30			MIC [3, 16]: 1.8 µM (≈ 0.795 µg/mL); MIC [7]: 3.1 µM (≈ 1.37 µg/mL); MIC [8]: 3.1 µM (≈ 1.37 µg/mL); MIC [9]: 3.1 µM (≈ 1.37 µg/mL); MIC [10]: 3.1 µM (≈ 1.37 µg/mL)
CCN(CC)c1nc2c(S(=O)(=O)c3ccccc3)nnn2c2ccc(F)cc12	> 31	< 30			
COc1ccc(C2Nc3ccccc3-n3c(-c4ccccc4)c4c(=O)n(C)c(=O)n(C)c4c32)cc1 (configuration not stated)			37	81	
Cn1c(=O)c2c(-c3ccc(Cl)cc3)n3c(c2n(C)c1=O)C(c1ccccc1)Nc1ccccc1-3 (configuration not stated)			65	74	
COc1ccc(O)c(C2Nc3ccccc3-n3c(-c4ccccc4)c4c(=O)n(C)c(=O)n(C)c4c32)c1 (configuration not stated)			20	40	
CCN(CC)c1nc2c(S(=O)(=O)c3ccc(Cl)cc3)nnn2c2cc(OC)c(OC)cc12		< 30			MIC [3, 16]: 0.3 µM (≈ 0.143 µg/mL); MIC [7]: 0.3 µM (≈ 0.143 µg/mL); MIC [8]: 0.3 µM (≈ 0.143 µg/mL); MIC [9]: 0.6 µM (≈ 0.286 µg/mL); MIC [10]: 0.6 µM (≈ 0.286 µg/mL); Activity [12]: Toxic; Activity [13]: Non-toxic; fold change (FC) [14]: 8
COc1ccccc1C1Nc2ccccc2-n2c(-c3ccccc3)c3c(=O)n(C)c(=O)n(C)c3c21 (configuration not stated)			85	123	
Cn1c(=O)c2c(-c3ccccc3)n3c(c2n(C)c1=O)C(c1cccc([N+](=O)[O-])c1)Nc1ccccc1-3 (configuration not stated)			64	74	
CCN(CC)c1nc2c(S(=O)(=O)c3ccccc3)nnn2c2ccc([N+](=O)[O-])cc12					inhibition of growth at 100 µM [1]: > 31%
Cn1c(=O)c2c(-c3ccccc3)n3c(c2n(C)c1=O)C(c1ccccc1[N+](=O)[O-])Nc1ccccc1-3 (configuration not stated)			79	86	
